# Assay results: patent US20240103005A1, “N-ACRYLOYLINDOLES AND METHODS OF USE” (The University of Hong Kong, priority 2022, published 2024)
# “Also recorded” adds a separate entry of the source.
# Assays:
# [1] = Reaction kinetics of cysteine-reactive compounds with N-acetyl-L-cysteine methyl ester (LC-MS); type: physicochemical; settings: for time to complete reaction with N-acetylcysteine methyl ester: PBS/MeOH 4:1; for calculated rate constant, fold faster than NAIA: reaction with N-Ac-Cys-OMe 250 μM
# Protocol: Reaction Kinetics of Cysteine-Reactive Compounds with N-Acetyl-L-Cysteine Methyl Ester
# Stock solution of cysteine-reactive compound in DMSO was diluted by PBS/MeOH solution mixture (4:1, v/v; 500 μL), reaching final concentration of 10 μM. Stock solution of N-acetyl-L-cysteine methyl ester in DMSO was then freshly prepared, and added to the compound solution at final concentration of 250 μM. The solution mixture was incubated at room temperature, and at predetermined time intervals, an aliquot of the reaction mixture (10 μL) was sent for LC-MS analysis on Waters Autopurification System using a SunFire C18 HPLC column (50×4.6 mm with 5 μm diameter particles, Waters). Separation was achieved by gradient elution from 5% to 100% MeCN in water (constant 0.1 vol % formic acid) over 4 min, isocratic elution with 100% MeCN (with 0.1 vol % formic acid) from 4 to 8 min, and returning to 5% MeCN in water (with 0.1 vol % formic acid) and equilibrated for 2 min. Selected ion chromatograms, with m/z corresponding to the molecular ion of the compound and/or the adduct, were extracted and the data was analyzed using MassLynx™ software by calculating the area under the curve. The peak area was then calibrated to concentration of the compound/adduct by a set of solution mixtures containing known concentrations of the compound/adduct.
# The reactivity of NAIA with cysteine in aqueous buffer solution has been investigated by LC-MS experiments (FIGS. 1A-1J). […] Upon addition of N-acetylcysteine methyl ester (250 μM), NAIA-5 reacted quickly and completely with N-acetylcysteine methyl ester within […], as reflected by the diminishment of the peak of NAIA-5 at t=6.20 min with a concomitant growth of a new peak at t=5.60 min in the LC, which is attributable to the cysteine adduct of NAIA-5 based on the MS (FIGS. 1B-1G). […] This highlights the important contribution of aromaticity of indole scaffold to increase electrophilicity of acrylamide warhead for fast and complete cysteine reaction in aqueous buffer solution.
# Next, we monitored the reaction between NAIA-amide (10 μM) and N-acetylcysteine methyl ester (250 μM) by LC-MS analysis (FIG. 17A). Complete conversion of NAIA-C5 amide was observed within 40 s as indicated by the disappearance of NAIA-C5 amide peak (t=5.09 min) and emergence of the adduct peat (t=4.80 min) in the LC trace (FIG. 17B). Likewise, the reaction of NAIA-C4 amide proceeded with fast kinetics and was completely consumed in 1 min (FIG. 17C). The calculated rate constant of NAIA-C5 amide and NAIA-C4 amide were 2-fold and 1.2-fold faster than NAIA (FIG. 17D). […] Owning to the excellent reaction rate of NAIA-C5 amide, it was taken forward for further comparative analysis in subsequent experiments.
# [2] = Stability in aqueous buffer solution over time (LC-MS); type: physicochemical
# Protocol: Stability of NAIA-5 in Aqueous Buffer Solution Over Time
# NAIA-5 (10 μM) was dissolved in PBS/MeOH solution mixture (4:1, v/v; 500 μL) and stay at room temperature. At predetermined time intervals, an aliquot of the reaction mixture (10 μL) was sent for LC-MS analysis on Waters Autopurification System using a SunFire C18 HPLC column (50×4.6 mm with 5 μm diameter particles, Waters). Separation was achieved by gradient elution from 5% to 100% MeCN in water (constant 0.1 vol % formic acid) over 4 min, isocratic elution with 100% MeCN (with 0.1 vol % formic acid) from 4 to 8 min and returning to 5% MeCN in water (with 0.1 vol % formic acid) and equilibrated for 2 min. Selected ion chromatograms, with m/z=325 corresponding to [NAIA-5+H]^+, were extracted and analyzed by integrating the area under curve.
# (§1) As fast-reacting probes are often susceptible to hydrolysis, we sought to investigate the aqueous stability of NAIA-C5 amide. […] Taking the excellent reaction kinetics and a mere 14% degradation in 30 min into account, NAIA-C5 amide was considered to be a useful tool in cysteine profiling (FIG. 17C and FIG. 17F).
# HCT116 cell lysates = assay: Gel-based ABPP, Cys labeling of HCT116 cell lysates; type: biochemical
# Protocol: FIGS. 18A-18B Gel-based ABPP analysis of NAIA-amides, NAIA-5 and IAA on Cys labeling of HCT116 cell lysates in vitro. HCT116 cell lysates (100 μg) were incubated with the compounds at indicated concentrations and time intervals, following by CuAAC reaction with azide-fluor 545 (25 μM). The labeled proteins were then boiled with sampling buffer, and read out by in-gel fluorescence after SDS-PAGE.
# Confirming the reaction between NAIA-C5 amide and cysteine in vitro, we moved on to evaluate its application for cysteine profiling in complex biological sample. To assess this, we performed gel-based ABPP in cell lysates and in live cells. HCT116 cell lysates were incubated with IAA, NAIA and NAIA-Amide, followed by installation of fluorophore by click chemistry. Then, the labelled proteins were resolved by SDS-PAGE and visualized by their in-gel fluorescence. […] In time-dependent experiments, a 15-minute incubation of NAIA-C5 amide with HCT116 cell lysates was sufficient to have decent labeling, highlighting its quick labeling (FIG. 18B).
# [3] = Selectivity for reacting with Cys over other amino acids (LC-MS); type: physicochemical; settings: compound 10 μM, amino acid 30 μM (3 equiv.), 30 min, PBS/MeOH 4:1
# Protocol: Selectivity of NAI for Reacting with Cys Over Other Amino Acids
# Stock solution of NAIA-4 and NAIA-5, respectively, in DMSO was diluted by PBS/MeOH solution mixture (4:1, v/v; 500 μL), reaching final concentration of 10 μM. Stock solution of amino acid in DMSO was then freshly prepared, and added to the compound solution at final concentration of 30 μM. The solution mixture was incubated at room temperature for 30 min. After that, an aliquot of the reaction mixture (10 μL) was sent for LC-MS analysis. Selected ion chromatograms, with m/z=325 corresponding to [NAIA-4+H]^+ or [NAIA-5+H]^+, were extracted and analyzed by integrating the area under curve.
# as §1
# 231MFP cells [4] = assay: Gel-based ABPP, Cys labeling in live 231MFP cells; type: cell-based; settings: 1 h pre-treatment
# Protocol: FIGS. 10A-10D. Gel-based ABPP experiments of NAIA-4 to investigate its ability to label Cys in cell lysates and live cells. (FIGS. 10A-10B) 231MFP cell lysates (20 μg) were incubated with NAIA-4 or IAA at indicated concentrations for 30 min, following by CuAAC reaction with azide-fluor 545 (5 μM). The labeled proteins were then boiled with sampling buffer, and read out by in-gel fluorescence after SDS-PAGE. Quantified data were shown in average±s.e.m. from n=3 replicates/group. Statistical significance vs untreated control is expressed as *p<0.05; ***p<0.001, and vs different treatment groups is expressed as “p<0.01; ^###p<0.001. (FIGS. 10C-10D) 231MFP cells were pre-treated with NAIA-4 or IAA at indicated concentrations for 1 h. The cells were then washed with DPBS and lysed in DPBS by probe sonication. The cell lysates were labeled with azide-fluor 545 (25 μM) by CuAAC reaction, and the labeled protein were detected by in-gel fluorescence after SDS-PAGE. Quantified data were shown in average±s.e.m. from n=3 biological replicates/group. Statistical significance is expressed as *p<0.05; ***p<0.001.
# In-Gel Fluorescence for Visualizing Cys Labeling by NAIAs and IAA in Live Cells
# 231MFP or HepG2 cells were grown in 10-cm plates in complete medium. […] Protein concentration of the lysates was determined by BCA assay, and the lysates were diluted to 2 mg/mL by DPBS. […]
# 231MFP cells [5] = assay: WST-8 cell viability assay; type: cell-based; settings: WST-8, 2 h incubation; read-out: IC50 (cytotoxicity)
# Protocol: WST-8 Cell Viability Assay of Cells Treated with NAIA-4 or IAA
# 231MFP cells were plated on 96-well plates (Corning, 3904) at 30,000 cells per well and allowed to grow in complete medium overnight. The cells were then incubated with DMSO solvent control, NAIA-4 or IAA at indicated concentrations for 2 h. The solution was replaced with new culture medium containing 10 μL of WST-8 solution (Abcam; ab228554) and incubated for 2 h in dark at 37° C. Cell viability were then assayed by the absorption at 460 nm on SpectraMax i3 (Molecular Devices).
# 231MFP cell lysates = assay: Gel-based ABPP, Cys labeling of 231MFP cell lysates (in-gel fluorescence); type: biochemical; settings: 30 min incubation
# Protocol: FIGS. 10A-10D. Gel-based ABPP experiments of NAIA-4 to investigate its ability to label Cys in cell lysates and live cells. (FIGS. 10A-10B) 231MFP cell lysates (20 μg) were incubated with NAIA-4 or IAA at indicated concentrations for 30 min, following by CuAAC reaction with azide-fluor 545 (5 μM). The labeled proteins were then boiled with sampling buffer, and read out by in-gel fluorescence after SDS-PAGE. Quantified data were shown in average±s.e.m. from n=3 replicates/group. Statistical significance vs untreated control is expressed as *p<0.05; ***p<0.001, and vs different treatment groups is expressed as “p<0.01; ^###p<0.001. (FIGS. 10C-10D) 231MFP cells were pre-treated with NAIA-4 or IAA at indicated concentrations for 1 h. […] The cell lysates were labeled with azide-fluor 545 (25 μM) by CuAAC reaction, and the labeled protein were detected by in-gel fluorescence after SDS-PAGE. Quantified data were shown in average±s.e.m. from n=3 biological replicates/group. Statistical significance is expressed as *p<0.05; ***p<0.001.
# In-Gel Fluorescence for Visualizing Cys Labeling by NAIAs and IAA In Vitro
# HepG2 or 231MFP cells were lysed by probe sonication in DPBS, and cell debris were removed by centrifugation at 1,000 g for 5 min. Protein concentration of the lysates was determined by bicinchoninic acid (BCA) assay, and the lysates were then diluted to 2 mg/mL by DPBS. […]
# [6] = compound 10 μM, N-Ac-Cys-OMe 250 μM
smiles,measurement,setting,value
C#CCCCCNC(=O)c1cn(C(=O)C=C)c2ccccc12 [NAIA-C3 amide],cysteine reaction rate (in words),[1]; [6],reacted relatively slower despite it still showed superior reaction kinetics over IAA
C#CCCCCNC(=O)c1ccc2c(ccn2C(=O)C=C)c1 [NAIA-C5 amide],change of compound level in aqueous buffer solution over time (in words),"[2]; 10 μM, PBS/MeOH 4:1, room temperature",gradual degradation was observed in 3 hours
same,degradation in aqueous buffer,[2]; 30 min,14%
same,in-gel fluorescence (in words),HCT116 cell lysates,comparable to that by NAIA; also recorded: significantly stronger fluorescence was detected in samples incubated with NAIA or NAIA-C5 amide in a dose-dependent manner
same,"overall in-gel fluorescence intensity, fold higher than IAA",HCT116 cell lysates,3 fold
same,incubation time sufficient for decent labeling,HCT116 cell lysates; time-dependent experiment,15 min
same,time to complete reaction with N-acetylcysteine methyl ester,[1]; [6],≤ 40 s
same,"calculated rate constant, fold faster than NAIA",[1],2 fold
same,selectivity toward cysteine over other amino acids,[3],only incubation with cysteine consumed NAIA-C5 amide to an undetectable level
"C=CC(=O)N1CCc2ccccc21 [NAine, N-acryloylindoline]",reaction kinetics with cysteine (k),[1]; FIG. 7 legend summary,< 10^0 M^−1 s^−1
C#CCCCCNC(=O)c1cccc2c1ccn2C(=O)C=C [NAIA-C4 amide],time to complete consumption by N-acetylcysteine methyl ester,[1]; [6],1 min
same,"calculated rate constant, fold faster than NAIA",[1],1.2 fold
C#CCCCCNC(=O)COc1cccc2c1ccn2C(=O)C=C [NAIA-4],cysteine labeling in live cells (in-gel fluorescence) compared with IAA,231MFP cells [4],more labeling of functional cysteines by NAIA-4 than IAA
same,IC50,231MFP cells [5],> 40 µM
same,cysteine labeling (in-gel fluorescence) compared with IAA,231MFP cell lysates,better labeling from NAIA-4 than IAA at all the doses tested
same,time to complete reaction with N-acetylcysteine methyl ester,[1]; [6],≤ 120 s
same,selectivity toward cysteine over other amino acids,[3],excellent selectivity toward cysteine over other amino acids; also recorded: Significant decreases in NAIA-4 and NAIA-5 levels were only found in the solution mixture with N-acetyl-L-cysteine methyl ester
